Where a name gives a salt, the structure may show the parent alone.
Target: T1, DPP-IV obtained from pig kidney (Sus scrofa, UniProt P22411)
T1 construct: DPP-IV obtained from pig kidney; from tissue; host or cells: pig kidney
Experiment: Measurement of DPPIV-inhibiting activity (in vitro experiment)
Type: biochemical
Conditions: DPP-IV from pig kidney 10 mU/mL, substrate Gly-Pro-p-nitroanilide 0.33 mM, 20 min preincubation, 20 min reaction, absorbance 405 nm
Method: DPP-IV obtained from pig kidney was dissolved in a reaction buffer (50 mM Tris-HCl pH7.4, 0.1% BSA) at 10 mU/mL, and 110 μL of this was used. 15 μL of the drug obtained from the aforementioned Examples was added, and this was incubated at room temperature for 20 minutes, and then 25 μL of a 2 mM solution of Gly-Pro-p-nitroanilide (final concentration 0.33 mM) was added to start the enzymatic reaction. The reaction time was 20 minutes, and 1 N phosphoric acid solution (25 μL) was added to stop the reaction.

T1 sequence (P22411 whole entry): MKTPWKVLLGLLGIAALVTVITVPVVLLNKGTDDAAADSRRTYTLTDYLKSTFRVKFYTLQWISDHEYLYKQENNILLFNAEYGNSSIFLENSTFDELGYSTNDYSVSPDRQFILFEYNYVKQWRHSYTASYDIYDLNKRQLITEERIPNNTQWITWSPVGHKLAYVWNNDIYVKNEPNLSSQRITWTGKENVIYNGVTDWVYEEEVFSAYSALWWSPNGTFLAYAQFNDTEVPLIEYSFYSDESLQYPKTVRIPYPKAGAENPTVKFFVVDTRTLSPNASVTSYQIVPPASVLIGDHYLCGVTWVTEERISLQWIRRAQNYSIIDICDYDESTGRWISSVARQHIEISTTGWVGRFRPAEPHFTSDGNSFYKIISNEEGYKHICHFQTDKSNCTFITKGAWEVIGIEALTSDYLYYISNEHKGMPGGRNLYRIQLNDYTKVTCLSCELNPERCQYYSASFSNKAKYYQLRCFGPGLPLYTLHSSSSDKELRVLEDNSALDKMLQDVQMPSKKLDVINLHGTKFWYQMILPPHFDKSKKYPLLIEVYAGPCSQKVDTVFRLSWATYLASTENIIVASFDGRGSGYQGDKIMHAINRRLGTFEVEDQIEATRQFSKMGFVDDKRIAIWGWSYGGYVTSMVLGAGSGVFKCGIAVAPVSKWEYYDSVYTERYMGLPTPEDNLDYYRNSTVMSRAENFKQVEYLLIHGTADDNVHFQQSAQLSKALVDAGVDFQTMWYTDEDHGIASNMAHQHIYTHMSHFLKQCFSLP

Compound | IC50 [µM]
CC#CCn1c(=O)n(CC(=O)OC)c2nc(Cl)nc(N3CCNCC3)c21 [Example 40, [7-(2-Butynyl)-2-chloro-8-oxo-6-(piperazin-1-yl)-7,8-dihydropurin-9-yl]acetic acid methyl ester trifluoroacetic acid salt] | 0.0896
Cn1c(=O)n(Cc2ccccc2)c2c(N3CCNCC3)nc(Cl)nc21 [Example 21, 7-Benzyl-2-chloro-9-methyl-6-(piperazin-1-yl)-7,9-dihydropurin-8-one trifluoroacetic acid salt] | 2.45
CC#CCn1c(=O)n(C)c2nc(Cl)nc(N3CCNCC3)c21 [Example 2, 7-(2-Butynyl)-2-chloro-9-methyl-6-(piperazin-1-yl)-7,9-dihydropurin-8-one trifluoroacetic acid salt] | 0.0864
CC#CCn1c(=O)n(C)c2nc(SC)nc(N3CCNCC3)c21 [Example 9, 7-(2-Butynyl)-2-methylsulfanyl-9-methyl-6-(piperazin-1-yl)-7,9-dihydropurin-8-one trifluoroacetic acid salt] | 0.214
CC#CCn1c(=O)n(CCCC#N)c2nc(Cl)nc(N3CCNCC3)c21 [Example 37, 4-[7-(2-Butynyl)-2-chloro-8-oxo-6-(piperazin-1-yl)-7,8-dihydropurin-9-yl]butyronitrile trifluoroacetic acid] | 0.149
CC#CCn1c(=O)n(-c2ccccc2)c2nc(Cl)nc(N3CCNCC3)c21 [Example 41, 7-(2-Butynyl)-2-chloro-9-phenyl-6-(piperazin-1-yl)-7,9-dihydropurin-8-one trifluoroacetic acid salt] | 0.0917
CC#CCn1c(=O)n(CCC)c2nc(Cl)nc(N3CCNCC3)c21 [Example 30, 7-(2-Butynyl)-2-chloro-6-(piperazin-1-yl)-9-propyl-7,9-dihydropurin-8-one trifluoroacetic acid salt] | 0.132
CC#CCn1c(=O)n(C)c2nc(NCc3ccccc3)nc(N3CCNCC3)c21 [Example 17, 2-Benzylamino-7-(2-butynyl)-9-methyl-6-(piperazin-1-yl)-7,9-dihydropurin-8-one trifluoroacetic acid salt] | 0.263
CC#CCn1c(=O)n(C)c2nc(Oc3ccccc3C(N)=O)nc(N3CCNCC3)c21 [Example 14, 2-[7-(2-Butynyl)-9-methyl-8-oxo-6-(piperazin-1-yl)-8,9-dihydro-7H-purin-2-yloxy]benzamide trifluoroacetic acid salt] | 0.124
CC#CCn1c(=O)n(Cc2ccccc2)c2nc(Cl)nc(N3CCNCC3)c21 [Example 36, 9-Benzyl-7-(2-butynyl)-2-chloro-6-(piperazin-1-yl)-7,9-dihydropurin-8-one trifluoroacetic acid salt] | 0.0807
CC=CCn1c(=O)n(C)c2nc(Cl)nc(N3CCNCC3)c21 [Example 20, 7-(2-Butenyl)-2-chloro-9-methyl-6-(piperazin-1-yl)-7,9-dihydropurin-8-one trifluoroacetic acid salt] | 0.642
CC#CCn1c(=O)n(CCc2ccc(Br)cc2)c2nc(Cl)nc(N3CCNCC3)c21 [Example 35, 9-[2-(4-Bromophenyl)-ethyl]-7-(2-butynyl)-2-chloro-6-(piperazin-1-yl)-7,9-dihydropurin-8-one trifluoroacetic acid salt] | 0.0266
CC#CCn1c(=O)n(C)c2nc(OCc3ccccc3)nc(N3CCNCC3)c21 [Example 11, 2-Benzyloxy-7-(2-butynyl)-9-methyl-6-(piperazin-1-yl)-7,9-dihydropurin-8-one trifluoroacetic acid salt] | 0.179
CCC#CCn1c(=O)n(C)c2nc(Cl)nc(N3CCNCC3)c21 [Example 18, 2-Chloro-9-methyl-7-(2-pentynyl)-6-(piperazin-1-yl)-7,9-dihydropurin-8-one trifluoroacetic acid salt] | 0.972
CC#CCn1c(=O)n(C)c2nc(NC)nc(N3CCNCC3)c21 [Example 5, 7-(2-Butynyl)-9-methyl-2-methylamino-6-(piperazin-1-yl)-7,9-dihydropurin-8-one trifluoroacetic acid salt] | 0.172
CC#CCn1c(=O)n(C)c2nc(N)nc(N3CCNCC3)c21 [Example 6, 2-Amino-7-(2-butynyl)-9-methyl-6-(piperazin-1-yl)-7,9-dihydropurin-8-one trifluoroacetic acid salt] | 0.45
CC#CCn1c(=O)n(C)c2nc(Oc3ccccc3)nc(N3CCNCC3)c21 [Example 12, 7-(2-Butynyl)-9-methyl-2-phenoxy-6-(piperazin-1-yl)-7,9-dihydropurin-8-one trifluoroacetic acid salt] | 0.0474
CC#CCn1c(=O)n(CC#N)c2nc(Cl)nc(N3CCNCC3)c21 [Example 32, [7-(2-Butynyl)-2-chloro-8-oxo-6-(piperazin-1-yl)-7,8-dihydropurin-9-yl]acetonitrile trifluoroacetic acid salt] | 0.212
CC#CCOc1nc(N2CCNCC2)c2c(n1)n(C)c(=O)n2CC#CC [Example 16, 7-(2-Butynyl)-2-(2-butynyloxy)-9-methyl-6-(piperazin-1-yl)-7,9-dihydropurin-8-one trifluoroacetic acid salt] | 0.364
CC#CCn1c(=O)n(C)c2nc(O)nc(N3CCNCC3)c21 [Example 8, 7-(2-Butynyl)-2-hydroxy-9-methyl-6-(piperazin-1-yl)-7,9-dihydropurin-8-one trifluoroacetic acid salt] | 1.16

The next lines start with the values.

IC50 [µM] | Compound
0.0678 | CC#CCn1c(=O)n(-c2ccc(OC)cc2)c2nc(Cl)nc(N3CCNCC3)c21 [Example 43, 7-(2-Butynyl)-2-chloro-9-(4-methoxyphenyl)-6-(piperazin-1-yl)-7,9-dihydropurin-8-one trifluoroacetic acid salt]
0.0498 | CC#CCn1c(=O)n(-c2ccc(=O)[nH]c2)c2ncnc(N3CCNCC3)c21 [Example 67, 7-(2-Butynyl)-9-(6-oxo-16-dihydro-pyridin-3-yl)-6-(piperazin-1-yl)-7,9-dihydropurin-8-one trifluoroacetic acid salt]
0.0425 | CC#CCn1c(=O)n(-c2ccc(C#N)cc2)c2nc(Cl)nc(N3CCNCC3)c21 [Example 42, 4-[7-(2-Butynyl)-2-chloro-8-oxo-6-(piperazin-1-yl)-7,8-dihydropurin-9-yl]benzonitrile trifluoroacetic acid salt]
0.0775 | CC#CCn1c(=O)n(-c2ccsc2)c2nc(OC)nc(N3CCNCC3)c21 [Example 57, 7-(2-Butynyl)-9-(thiophen-3-yl)-2-methoxy-6-(piperazin-1-yl)-7,9-dihydropurin-8-one trifluoroacetic acid salt]
0.141 | CC#CCn1c(=O)n(CC2CC2)c2ncnc(N3CCNCC3)c21 [Example 72, 7-(2-Butynyl)-9-cyclopropylmethyl-6-(piperazin-1-yl)-7,9-dihydropurin-8-one trifluoroacetic acid salt]
0.26 | CC#CCn1c(=O)n(CC(N)=O)c2ncnc(N3CCNCC3)c21 [Example 71, 2-[7-(2-Butynyl)-8-oxo-6-(piperazin-1-yl)-7,8-dihydropurin-9-yl]acetamide trifluoroacetic acid salt]
0.0372 | CC#CCn1c(=O)n(-c2cccnc2)c2nc(OC)nc(N3CCNCC3)c21 [Example 55, 7-(2-Butynyl)-2-methoxy-6-(piperazin-1-yl)-9-(pyridin-3-yl)-7,9-dihydropurin-8-one trifluoroacetic acid salt]
0.04 | CC#CCn1c(=O)n(Cc2ccc(C#N)cc2)c2nc(OC)nc(N3CCNCC3)c21 [Example 49, 4-[7-(2-Butynyl)-2-methoxy-8-oxo-6-(piperazin-1-yl)-7,8-dihydropurin-9-ylmethyl]benzonitrile trifluoroacetic acid salt]
0.0593 | CC#CCn1c(=O)n(-c2ccc(OC)nc2)c2ncnc(N3CCNCC3)c21 [Example 66, 7-(2-Butynyl)-9-(6-methoxy-pyridin-3-yl)-6-(piperazin-1-yl)-7,9-dihydropurin-8-one trifluoroacetic acid salt]
1.13 | CC#CCn1c(=O)n(C)c2c(Oc3ccccc3C(N)=O)cnc(N3CCNCC3)c21 [Example 83, 2-[3-(2-Butynyl)-1-methyl-2-oxo-4-piperazin-1-yl-2,3-dihydro-1H-imidazo[4.5-c]pyridin-7-yloxy]-benzamide trifluoroacetic acid salt]
5.23 | CC#CCn1c(=O)n(C)c2ccnc(N3CCNCC3)c21 [Example 82, 3-(2-Butynyl)-1-methyl-4-piperazin-1-yl-1,3-dihydroimidazo[4.5-c]pyridin-2-one]
0.146 | CC#CCn1c(=O)n(-c2ccoc2)c2ncnc(N3CCNCC3)c21 [Example 63, 7-(2-Butynyl)-9-(furan-3-yl)-6-(piperazin-1-yl)-7,9-dihydropurin-8-one trifluoroacetic acid salt]
0.13 | CC#CCn1c(=O)n(-c2ccsc2)c2nc(Cl)nc(N3CCNCC3)c21 [Example 45, 7-(2-Butynyl)-2-chloro-6-(piperazin-1-yl)-9-(thiophen-3-yl)-7,9-dihydropurin-8-one trifluoroacetic acid salt]
0.139 | CC#CCn1c(=O)n(-c2ccccc2)c2ncnc(N3CCNCC3)c21 [Example 62, 7-(2-Butynyl)-9-phenyl-6-(piperazin-1-yl)-7,9-dihydropurin-8-one trifluoroacetic acid salt]
0.0948 | C#CCn1c(=O)n(CC#CC)c2c(N3CCNCC3)ncnc21 [Example 70, 7-(2-Butynyl)-6-(piperazin-1-yl)-9-(2-propynyl)-7,9-dihydropurin-8-one trifluoroacetic acid salt]
0.00365 | CC#CCn1c(=O)n(Cc2ccccc2C#N)c2nc(OC)nc(N3CCNCC3)c21 [Example 50, 2-[7-(2-Butynyl)-2-methoxy-8-oxo-6-(piperazin-1-yl)-7,8-dihydropurin-9-ylmethyl]benzonitrile trifluoroacetic acid salt]

Source: patent US7524847B2, “Fused 1,3-dihydro-imidazole ring compounds” (Eisai R&D Management Co., Ltd., priority 2002, dated 2009)
